The record followed here is PubChem BioAssay (NCI).

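Five compound concentrations were applied to cells in 96-well plates for 48 hours; endpoints were derived by simple linear interpolation of the resulting dose-response curve. The concentration for 50% growth inhibition is given as GI50. TGI is the concentration that stops growth completely.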 Where only a bound is given, the exact number is not on record here.

Some test systems named below: 786-0 renal; MOLT-4 leukemia; SNB-75 CNS; NCI-H460 lung; HOP-62 NSCLC; HCT-116 colon; COLO 205 colon; MDA-MB-231 breast; T-47D breast; MDA-MB-435.
What all share (test): NCI anticancer screen, dose series, 48 h

`O=C(O)CCCl`: the TGI in the experiment on 786-0 renal, with MOLT-4 leukemia, with SNB-75 CNS, in the experiment with NCI-H460 lung, with HOP-62 NSCLC and in the experiment with HCT-116 colon was greater than 5000 µM throughout. This compound also registered a TGI in the experiment on COLO 205 colon greater than 5000 µM.

In the case of `FC(F)(F)c1ccc(-c2nc(-c3nc4cc(Cl)c(Cl)cc4[nH]3)c3ccccn23)cc1`, the GI50 in the experiment on MDA-MB-231 breast was 2.49 µM; in the experiment with T-47D breast, 4.06 µM; in the experiment with MOLT-4 leukemia, greater than 100 µM; with SNB-75 CNS it was 1.45 µM; in the experiment with HOP-62 NSCLC, 3.04 µM; with HCT-116 colon, 2.92 µM. Moreover, the GI50 in the experiment on COLO 205 colon was greater than 100 µM. The TGI in the experiment with MDA-MB-231 breast is greater than 100 µM; in the experiment on T-47D breast, greater than 100 µM; in the experiment on MOLT-4 leukemia, greater than 100 µM; with SNB-75 CNS, 4.3 µM; with HOP-62 NSCLC it was 16.3 µM; with HCT-116 colon, greater than 100 µM. In addition, the TGI in the experiment with COLO 205 colon was greater than 100 µM.

In the case of `COc1ccc2oc(=N)c(C(=O)Nc3cccc4ccccc34)cc2c1`, the TGI in the experiment on MDA-MB-231 breast is 79.1 µM; with T-47D breast, greater than 100 µM; with 786-0 renal, 28 µM; in the experiment on SNB-75 CNS, 32.9 µM; with NCI-H460 lung, greater than 100 µM; with MDA-MB-435 it was 11.1 µM. The TGI in the experiment on HOP-62 NSCLC was 26.9 µM; in the experiment on HCT-116 colon, greater than 100 µM; in the experiment on COLO 205 colon, greater than 100 µM.

Take `CCC(C)[C@H](NC(=O)[C@H](Cc1ccccc1)NC(=O)N(CC)c1ccccc1)C(=O)N[C@@H](CC(C)C)C(=O)OC` (stereo partly drawn): the TGI in the experiment on MDA-MB-231 breast is greater than 100 µM; in the experiment with T-47D breast, greater than 100 µM; in the experiment with 786-0 renal, greater than 100 µM; in the experiment on MOLT-4 leukemia it was 39.7 µM; in the experiment with SNB-75 CNS, greater than 100 µM; with MDA-MB-435, greater than 100 µM. The TGI with HOP-62 NSCLC, in the experiment with HCT-116 colon and in the experiment with COLO 205 colon was greater than 100 µM in each case.

On to `O=c1cnn(C/C=C\CO)c(=O)[nH]1`, for which the TGI in the experiment on MDA-MB-231 breast, with T-47D breast, in the experiment with SNB-75 CNS, in the experiment on NCI-H460 lung, in the experiment on MDA-MB-435 and with HOP-62 NSCLC was greater than 100 µM throughout. The compound also showed a TGI in the experiment with COLO 205 colon greater than 100 µM.

Take `C1=C\SS/C=C\SS/C=C\SS/C=C\SS/1`: the TGI in the experiment with MDA-MB-231 breast is greater than 100 µM; in the experiment with T-47D breast, greater than 100 µM; with 786-0 renal it was greater than 100 µM; with MOLT-4 leukemia, greater than 100 µM; with NCI-H460 lung it was 68.3 µM; with MDA-MB-435, greater than 100 µM. For the same compound, the TGI in the experiment on HOP-62 NSCLC, with HCT-116 colon and with COLO 205 colon was greater than 100 µM each time.

In the case of `CN(C)CC(/C(Cc1ccccc1)=N\NC(=O)C[n+]1ccccc1)c1ccccc1` (stereo not drawn), the TGI in the experiment with 786-0 renal, in the experiment on MOLT-4 leukemia, with SNB-75 CNS, in the experiment on NCI-H460 lung, in the experiment with HOP-62 NSCLC and with HCT-116 colon was greater than 100 µM throughout. In addition, the TGI with COLO 205 colon was greater than 100 µM.

With `O=C(CSc1nnc(-c2ccc(N=Cc3ccc(Cl)cc3)cc2)o1)Nc1ccccc1Cl`, the TGI in the experiment with 786-0 renal, in the experiment with MOLT-4 leukemia, in the experiment on SNB-75 CNS, in the experiment with NCI-H460 lung, with HOP-62 NSCLC and in the experiment with HCT-116 colon was greater than 100 µM in each case. The TGI in the experiment with COLO 205 colon is greater than 100 µM.

In the case of `c1csc(-c2ccc(-c3ccc(-c4ccc(-c5cccs5)s4)s3)s2)c1`, the TGI with 786-0 renal, in the experiment on MOLT-4 leukemia, in the experiment with SNB-75 CNS, with NCI-H460 lung, in the experiment on MDA-MB-435 and with HOP-62 NSCLC was greater than 100 µM each time. The TGI with HCT-116 colon and in the experiment on COLO 205 colon was greater than 100 µM in each case.

For the compound `O=C(Nc1c(O)[nH]c(=S)[nH]c1=O)c1ccccn1`, the TGI in the experiment with 786-0 renal, in the experiment on MOLT-4 leukemia, with SNB-75 CNS, in the experiment with NCI-H460 lung, with HOP-62 NSCLC and with HCT-116 colon was greater than 100 µM each time. In addition, the TGI in the experiment with COLO 205 colon is greater than 100 µM.

`COc1cc(/C=C/C(=O)OCC23CC[C@@]4(C(=O)O)CCC(C)[C@H](C)C4C2=CCC2[C@@]4(C)CC[C@H](O)C(C)(C)C4CC[C@]23C)ccc1O` (stereo partly drawn): the TGI with MDA-MB-231 breast is greater than 100 µM; in the experiment on T-47D breast it was greater than 100 µM; in the experiment on 786-0 renal, 31.7 µM; in the experiment with MOLT-4 leukemia, 76.2 µM; in the experiment on NCI-H460 lung, 27.6 µM; with MDA-MB-435, 57 µM. In addition, the TGI turned out to be 28.6 µM with HOP-62 NSCLC and 46.4 µM with HCT-116 colon.

As to `C[N+]1(C)CCCC1C(=O)[O-]` (stereo not drawn), the TGI in the experiment on 786-0 renal, in the experiment with MOLT-4 leukemia, with SNB-75 CNS, with NCI-H460 lung, in the experiment with HOP-62 NSCLC and in the experiment with HCT-116 colon was greater than 100 µM each time. Besides, the TGI in the experiment with COLO 205 colon is greater than 100 µM.

With `CN1C/C(=C\c2cccs2)C2=NC(=S)NC(c3cccs3)C2C1` (stereo not drawn), the TGI with MDA-MB-231 breast was greater than 100 µM; in the experiment with T-47D breast, 84.5 µM; in the experiment on 786-0 renal, greater than 100 µM; with MOLT-4 leukemia it was 92 µM; with NCI-H460 lung, greater than 100 µM; in the experiment with MDA-MB-435, greater than 100 µM. The TGI in the experiment with HOP-62 NSCLC, in the experiment with HCT-116 colon and with COLO 205 colon was greater than 100 µM throughout.

On to `Nc1nc(N)c2ncn(CC3CCC(CO)C3)c2n1` (stereo not drawn), for which the TGI in the experiment with MDA-MB-231 breast, with T-47D breast, with 786-0 renal, with MOLT-4 leukemia, in the experiment with SNB-75 CNS and with MDA-MB-435 was greater than 100 µM in each case. The TGI in the experiment with HOP-62 NSCLC, with HCT-116 colon and in the experiment with COLO 205 colon was greater than 100 µM in each case.

As to `Cc1c2cc[nH]c(C(F)(F)F)c2cc2c1nc1ccccc12`, the TGI in the experiment on MOLT-4 leukemia was greater than 78.9 µM; with SNB-75 CNS it was 108 µM; with NCI-H460 lung it was greater than 125 µM; with HOP-62 NSCLC, greater than 125 µM; in the experiment with HCT-116 colon, greater than 125 µM; with COLO 205 colon, greater than 125 µM.
